Active and inactive are the calls of the source.
Assays:
[1] = inhibition of ADAM10 peptide cleavage – biochemical, FRET peptide substrate, recombinant human ADAM10, selectivity assay for ADAM17 exosite inhibitor project, dose response (AID 743259);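 note: ADAM10 enzyme cleaving a FRET peptide substrate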
[2] = loss of viability in HepG2 cells – cell-based, CellTiter-Glo, cherry-picked, cytotoxicity control for Shn3 inhibitor project, dose response (AID 624134); assay type: functional
[3] = reduction of Shn3 3'UTR-driven luciferase in osteoblasts – cell-based, Clone20 osteoblasts, firefly luciferase, cherry-picked, dose response (AID 624132); assay type: functional;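 note: firefly luciferase luminescence from reporter carrying the Shn3 3'UTR in osteoblasts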
Mucolipin-3 = biological target: T1, Mucolipin-3 (Homo sapiens, UniProt Q8TDD5); test: Dose response cell-based high-throughput screening assay for agonists of the transient receptor potential channel ML3 (TRPML3). [Related pubchem assays: 1526, 1424, 1448 ]; assay type: functional
T1 sequence (Q8TDD5 whole entry): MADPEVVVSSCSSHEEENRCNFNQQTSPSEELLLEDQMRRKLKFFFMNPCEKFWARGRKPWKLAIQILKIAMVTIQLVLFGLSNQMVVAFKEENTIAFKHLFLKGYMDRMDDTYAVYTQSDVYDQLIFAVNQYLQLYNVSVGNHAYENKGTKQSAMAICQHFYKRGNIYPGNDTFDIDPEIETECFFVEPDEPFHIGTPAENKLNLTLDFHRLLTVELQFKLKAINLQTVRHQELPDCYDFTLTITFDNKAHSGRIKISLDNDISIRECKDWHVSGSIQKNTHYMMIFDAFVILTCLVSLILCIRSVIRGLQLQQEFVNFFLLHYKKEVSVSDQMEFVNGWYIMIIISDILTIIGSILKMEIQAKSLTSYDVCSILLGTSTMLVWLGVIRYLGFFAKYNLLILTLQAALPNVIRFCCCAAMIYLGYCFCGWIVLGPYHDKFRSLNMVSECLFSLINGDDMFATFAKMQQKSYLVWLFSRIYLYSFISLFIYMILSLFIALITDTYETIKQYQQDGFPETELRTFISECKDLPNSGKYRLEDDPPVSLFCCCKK

[4] = Shn3 3'UTR reporter signal decrease – cell-based, Clone20 osteoblasts, firefly luciferase, cherry-pick, set 2, Schnurri-3 inhibitor project, dose response (AID 720490); assay type: functional;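 note: actives lower the luminescence signal as inhibitors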
Ion channel NompC = Ion channel NompC (Danio rerio, UniProt Q7T1G6); test: Fluorescence counterscreen assay for TRPML3 agonists: dose response cell-based high-throughput screening assay to identify agonists of the transient receptor potential channel N1 (TRPN1). [Related pubchem assays: 1526, 1424, 1448 ]; assay type: functional
[5] = biological target: Endoplasmic reticulum aminopeptidase 1 (Homo sapiens, UniProt Q9NZ08); test: inhibition of human ERAP1 enzyme activity – biochemical, cherry-pick, set 2, plate reader, dose response (AID 743314)
[6] = Luminescence-based cell-based high throughput dose response assay to identify activators of the DAF-12 from the parasite S. stercoralis (ssDAF-12).; assay type: functional
[7] = biological target: T2, Oxysterols receptor LXR-beta (Homo sapiens, UniProt P55055); test: LXR agonists, Gal4 luciferase reporter, dose response, counter-screen for ssDAF-12 agonist project, cell-based, luminescence, HEK293, S. stercoralis campaign (AID 720737); assay type: functional; conditions: read-out: IC50 (the source's name)
T2 sequence (P55055 whole entry): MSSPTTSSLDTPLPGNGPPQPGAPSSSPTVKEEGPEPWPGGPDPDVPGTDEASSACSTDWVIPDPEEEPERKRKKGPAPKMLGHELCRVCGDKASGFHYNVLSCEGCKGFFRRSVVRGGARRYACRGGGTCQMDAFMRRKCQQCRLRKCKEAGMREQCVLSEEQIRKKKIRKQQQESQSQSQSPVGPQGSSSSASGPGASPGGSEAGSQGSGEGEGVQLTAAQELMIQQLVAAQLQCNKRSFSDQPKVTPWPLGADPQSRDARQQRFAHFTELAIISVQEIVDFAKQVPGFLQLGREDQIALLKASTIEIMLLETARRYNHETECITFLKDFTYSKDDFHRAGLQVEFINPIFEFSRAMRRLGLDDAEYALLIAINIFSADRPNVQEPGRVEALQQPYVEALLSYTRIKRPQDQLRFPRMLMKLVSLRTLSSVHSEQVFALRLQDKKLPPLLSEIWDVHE

[8] = biological target: T2, Oxysterols receptor LXR-beta; assay type: functional, cell-based
Paired box protein Pax-8 = Paired box protein Pax-8 (Homo sapiens, UniProt Q06710); test: PAX8 transcriptional activity inhibition in RMG-I – RMG-I cells, luciferase, cherry-pick, dose response (AID 687027); assay type: functional, cell-based;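 note: luciferase reporter driven by Pax8 target thyroperoxidase promoter measured by SteadyGlo luminescence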
[9] = OVCAR8 cell viability loss – plate reader, dry powder samples, PAX8 project, dose response (AID 743197); assay type: functional, cell-based; conditions: OVCAR-8
[10] = A2780 cell killing – plate reader, dry powder samples, cytotoxicity control, dose response (AID 743046); assay type: functional, cell-based
[11] = OVCAR-3 cell viability loss – plate reader, dry powder samples, PAX8 inhibitor project, dose response (AID 743044); assay type: functional, cell-based
[12] = general cell-killing toxicity readout – plate reader, dry powder samples, cytotoxicity control for PAX8 inhibitor project, dose response (AID 743021); assay type: functional, cell-based
[13] = IGROV1 cell killing – plate reader, dry powder samples, PAX8 inhibitor project, dose response (AID 743043); assay type: functional, cell-based; conditions: IGROV-1

Sequence of Paired box protein Pax-8 (Q06710 whole entry): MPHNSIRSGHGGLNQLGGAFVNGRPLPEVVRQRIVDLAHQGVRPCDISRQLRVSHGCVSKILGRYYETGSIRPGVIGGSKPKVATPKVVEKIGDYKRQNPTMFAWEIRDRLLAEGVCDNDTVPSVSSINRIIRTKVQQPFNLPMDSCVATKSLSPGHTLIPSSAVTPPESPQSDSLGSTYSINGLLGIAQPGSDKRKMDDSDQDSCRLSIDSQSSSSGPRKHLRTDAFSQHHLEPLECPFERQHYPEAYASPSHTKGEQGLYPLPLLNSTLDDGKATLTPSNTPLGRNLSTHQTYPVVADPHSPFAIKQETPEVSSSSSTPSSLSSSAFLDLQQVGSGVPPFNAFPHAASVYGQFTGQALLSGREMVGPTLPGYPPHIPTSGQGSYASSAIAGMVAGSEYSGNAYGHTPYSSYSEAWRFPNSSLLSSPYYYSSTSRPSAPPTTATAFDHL
Sequence of Endoplasmic reticulum aminopeptidase 1 (Q9NZ08 whole entry): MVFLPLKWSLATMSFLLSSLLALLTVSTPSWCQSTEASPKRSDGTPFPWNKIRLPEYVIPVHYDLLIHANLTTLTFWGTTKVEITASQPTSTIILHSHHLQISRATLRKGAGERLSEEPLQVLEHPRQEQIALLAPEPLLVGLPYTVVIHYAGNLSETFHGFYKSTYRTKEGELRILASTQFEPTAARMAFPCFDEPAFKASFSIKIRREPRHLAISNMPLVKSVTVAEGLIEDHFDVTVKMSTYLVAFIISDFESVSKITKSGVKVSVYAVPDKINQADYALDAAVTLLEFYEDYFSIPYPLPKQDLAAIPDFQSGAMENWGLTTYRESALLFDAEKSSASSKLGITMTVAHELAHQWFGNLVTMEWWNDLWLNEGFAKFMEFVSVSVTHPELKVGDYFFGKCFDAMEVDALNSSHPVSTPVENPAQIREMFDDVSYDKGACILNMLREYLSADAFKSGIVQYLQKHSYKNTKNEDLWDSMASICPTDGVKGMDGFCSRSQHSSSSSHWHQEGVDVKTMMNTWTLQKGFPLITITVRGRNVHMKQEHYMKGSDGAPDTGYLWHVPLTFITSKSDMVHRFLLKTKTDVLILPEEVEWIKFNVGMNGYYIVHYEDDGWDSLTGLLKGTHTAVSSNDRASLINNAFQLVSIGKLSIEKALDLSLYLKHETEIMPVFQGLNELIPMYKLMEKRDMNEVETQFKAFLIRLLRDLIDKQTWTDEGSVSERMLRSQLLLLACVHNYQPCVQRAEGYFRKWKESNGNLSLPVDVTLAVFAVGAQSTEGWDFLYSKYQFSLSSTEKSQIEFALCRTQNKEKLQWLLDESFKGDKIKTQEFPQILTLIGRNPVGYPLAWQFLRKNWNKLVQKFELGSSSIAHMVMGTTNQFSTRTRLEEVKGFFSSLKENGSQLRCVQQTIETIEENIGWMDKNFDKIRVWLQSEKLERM
Sequence of Ion channel NompC (Q7T1G6 whole entry): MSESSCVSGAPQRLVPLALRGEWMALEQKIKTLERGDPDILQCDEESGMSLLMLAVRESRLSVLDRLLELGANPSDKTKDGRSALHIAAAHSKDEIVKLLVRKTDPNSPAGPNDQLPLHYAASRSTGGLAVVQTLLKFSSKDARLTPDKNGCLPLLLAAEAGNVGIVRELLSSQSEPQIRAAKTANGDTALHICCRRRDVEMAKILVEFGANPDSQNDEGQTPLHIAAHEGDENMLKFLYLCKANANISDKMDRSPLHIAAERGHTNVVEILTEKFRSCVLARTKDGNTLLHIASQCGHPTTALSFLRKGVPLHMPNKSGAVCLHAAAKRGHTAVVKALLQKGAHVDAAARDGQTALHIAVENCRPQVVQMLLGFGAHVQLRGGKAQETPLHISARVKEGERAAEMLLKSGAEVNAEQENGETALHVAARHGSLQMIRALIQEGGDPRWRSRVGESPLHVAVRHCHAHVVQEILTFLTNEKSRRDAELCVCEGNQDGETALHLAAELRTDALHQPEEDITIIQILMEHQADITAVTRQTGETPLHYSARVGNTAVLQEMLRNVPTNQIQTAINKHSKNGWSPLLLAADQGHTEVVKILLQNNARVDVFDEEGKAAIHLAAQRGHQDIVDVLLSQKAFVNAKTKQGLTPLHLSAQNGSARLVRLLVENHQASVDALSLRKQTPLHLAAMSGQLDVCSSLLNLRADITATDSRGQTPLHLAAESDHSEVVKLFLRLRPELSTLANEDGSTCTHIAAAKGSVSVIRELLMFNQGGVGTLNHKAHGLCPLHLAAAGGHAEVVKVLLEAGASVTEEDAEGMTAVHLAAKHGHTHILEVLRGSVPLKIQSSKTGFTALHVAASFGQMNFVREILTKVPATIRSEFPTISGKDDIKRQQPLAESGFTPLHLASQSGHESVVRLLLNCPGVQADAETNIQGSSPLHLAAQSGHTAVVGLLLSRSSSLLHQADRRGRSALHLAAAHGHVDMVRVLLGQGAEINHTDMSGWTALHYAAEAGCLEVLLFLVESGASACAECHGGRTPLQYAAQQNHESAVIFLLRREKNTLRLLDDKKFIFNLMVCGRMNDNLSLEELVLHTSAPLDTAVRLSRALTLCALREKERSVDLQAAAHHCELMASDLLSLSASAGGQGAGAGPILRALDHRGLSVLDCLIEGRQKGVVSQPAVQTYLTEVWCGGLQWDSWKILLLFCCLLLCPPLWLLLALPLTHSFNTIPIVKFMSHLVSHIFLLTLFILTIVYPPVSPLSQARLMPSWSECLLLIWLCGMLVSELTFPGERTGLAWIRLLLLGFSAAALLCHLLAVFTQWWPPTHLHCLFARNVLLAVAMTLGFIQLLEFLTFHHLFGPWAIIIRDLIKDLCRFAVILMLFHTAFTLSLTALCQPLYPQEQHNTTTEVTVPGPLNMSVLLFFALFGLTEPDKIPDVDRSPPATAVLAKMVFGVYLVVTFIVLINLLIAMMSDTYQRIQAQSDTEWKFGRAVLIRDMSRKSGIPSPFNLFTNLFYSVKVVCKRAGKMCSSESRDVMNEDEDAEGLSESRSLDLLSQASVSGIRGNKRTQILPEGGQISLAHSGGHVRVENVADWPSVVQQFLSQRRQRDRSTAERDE

SMILES: COc1ccc(-c2nnc(S)n2-c2ccc(Br)cc2)cc1OC
- IC50 [1]: > 69.5 µM (inactive)

SMILES: COc1ccc(NS(=O)(=O)c2ccc(OC)c(N(C)S(=O)(=O)c3ccc(Cl)cc3)c2)cc1
- AC50 [2]: 38.7 µM (active)
- AC50 [3]: 2.92 µM (active)
- EC50 (Mucolipin-3): > 9.99 µM (not active)
- AC50 [4]: 3.54 µM (active)
- EC50 (Ion channel NompC): > 29.9 µM (not active)

SMILES: O=c1ccc2cc(OC3O[C@H](CO)[C@@H](O)[C@H](O)[C@H]3O)c(O)cc2o1 (stereo partly specified)
- AC50 [5]: 2.24 µM (active)

SMILES: Oc1ccccc1-c1cc(-c2ccc(Cl)cc2)[nH]n1
- IC50 [6]: > 67.5 µM (inactive)
- EC50 [7]: > 67.5 µM (inactive)
- EC50 [8]: > 67.5 µM (inactive)

SMILES: COc1ccc(CN(C)C[C@@H]2OCCCC[C@H](C)Oc3ccc(NC(=O)Nc4ccc(C(F)(F)F)cc4)cc3C(=O)N([C@@H](C)CO)C[C@H]2C)cc1
- AC50 (Paired box protein Pax-8): 14.6 µM (active)
- AC50 [9]: 25.2 µM (active)
- AC50 [10]: 21.9 µM (active)
- AC50 [11]: 2.91 µM (active)
- AC50 [12]: 63.1 µM (active)

SMILES: O=C(C1CCC1)N1CC(=O)N2[C@H](CO)[C@H](c3ccc(C#CCc4ccccc4)cc3)[C@H]2C1
- AC50 (Paired box protein Pax-8): 24.3 µM (active)
- AC50 [9]: 20.4 µM (active)
- AC50 [10]: 0.324 µM (active)
- AC50 [13]: 42.6 µM (active)
- AC50 [11]: 11.4 µM (active)
- AC50 [12]: 48 µM (active)

Source: ChEMBL document CHEMBL1201862, “PubChem BioAssay data set” (2004)
